Patent publication US20240287106A1, “Method for Producing Fluorescent Probe Library Using Solid-Phase Extraction and Method of Measuring Enzyme Activity Using Same” (The University of Tokyo, priority 2021, published 2024)

Columns and labels:
Type in all cases: biochemical
CD13 = biological target: T1, CD13 (Homo sapiens, UniProt P15144); assay: Measurement of human plasma sample using CD13 probe in microdevice; conditions: 50 μM probe, 1000 fold dilution plasma; for Fluorescence intensity of human plasma samples, patient with pancreatic cancer compared with healthy subject (CD13 probe): microdevice; for AUC of ROC curve for the number of wells in which CD13 is considered to be enclosed: plasma of 30 patients with pancreatic cancer vs 30 healthy subjects, 37° C. 4 hours, wells >= Average+3SD of background fluorescence
T1 construct: human plasma samples collected from 30 patients with pancreatic cancer and 30 healthy subjects; from tissue; host or cells: human plasma (pancreatic cancer patients and healthy subjects)
T1 sequence (P15144 whole entry): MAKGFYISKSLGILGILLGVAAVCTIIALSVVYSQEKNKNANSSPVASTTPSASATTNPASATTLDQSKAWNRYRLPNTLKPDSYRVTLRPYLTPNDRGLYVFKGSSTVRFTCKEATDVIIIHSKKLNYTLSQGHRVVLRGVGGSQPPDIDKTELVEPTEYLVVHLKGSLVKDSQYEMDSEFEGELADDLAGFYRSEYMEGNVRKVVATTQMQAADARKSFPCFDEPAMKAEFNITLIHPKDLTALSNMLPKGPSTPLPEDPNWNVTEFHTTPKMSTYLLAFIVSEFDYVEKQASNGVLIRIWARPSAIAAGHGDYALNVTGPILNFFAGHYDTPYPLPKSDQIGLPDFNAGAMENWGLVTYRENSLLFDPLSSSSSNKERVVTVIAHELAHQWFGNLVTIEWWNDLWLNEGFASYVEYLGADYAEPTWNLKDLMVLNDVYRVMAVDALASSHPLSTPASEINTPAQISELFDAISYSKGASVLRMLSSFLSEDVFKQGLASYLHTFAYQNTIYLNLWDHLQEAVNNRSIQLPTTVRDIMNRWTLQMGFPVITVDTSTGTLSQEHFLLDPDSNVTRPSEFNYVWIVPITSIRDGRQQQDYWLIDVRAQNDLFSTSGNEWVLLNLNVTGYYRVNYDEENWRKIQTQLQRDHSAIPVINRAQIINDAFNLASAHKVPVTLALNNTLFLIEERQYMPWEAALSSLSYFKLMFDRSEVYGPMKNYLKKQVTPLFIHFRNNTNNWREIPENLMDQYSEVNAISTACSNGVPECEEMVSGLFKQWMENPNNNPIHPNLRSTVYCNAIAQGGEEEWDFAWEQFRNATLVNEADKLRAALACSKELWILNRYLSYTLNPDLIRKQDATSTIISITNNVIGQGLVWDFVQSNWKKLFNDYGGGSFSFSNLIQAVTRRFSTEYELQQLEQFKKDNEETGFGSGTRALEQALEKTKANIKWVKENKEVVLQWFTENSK
Description: 1. Arg-PMAC as a CD13 probe was diluted with an assay buffer to 100 μM. The composition of the buffer is 100 mM HEPES-NaOH (pH 7.4), 1 mM MgCl2, 1 mM DTT, 3 mM TritonX-100.
(§1) 2. Next, human plasma samples collected from 30 patients with pancreatic cancer and 30 healthy subjects were diluted 500 times with the above assay buffer, and mixed in an equal amount with the diluted solution of the CD13 probe. At this time, the final concentrations are 50 μM for the CD13 probe and 1000 fold dilution for the human plasma sample.
(§2) 3. The mixed solution was then added to a microdevice, followed by the addition of sealing oil to enclose the solution in each well.
4. The microdevice in which the solution was enclosed was incubated at 37° C. for 4 hours, and then the fluorescence intensity of each well was measured with a fluorescence microscope.

DPP4 = biological target: T2, DPP4 (Homo sapiens, UniProt P27487); assay: Measurement of human plasma sample using DPP4 probe in microdevice; conditions: 50 μM probe, 1000 fold dilution plasma
T2 construct: human plasma samples collected from 30 patients with pancreatic cancer and 30 healthy subjects; from tissue; host or cells: human plasma (pancreatic cancer patients and healthy subjects)
T2 sequence (P27487 39-766 limits assumed): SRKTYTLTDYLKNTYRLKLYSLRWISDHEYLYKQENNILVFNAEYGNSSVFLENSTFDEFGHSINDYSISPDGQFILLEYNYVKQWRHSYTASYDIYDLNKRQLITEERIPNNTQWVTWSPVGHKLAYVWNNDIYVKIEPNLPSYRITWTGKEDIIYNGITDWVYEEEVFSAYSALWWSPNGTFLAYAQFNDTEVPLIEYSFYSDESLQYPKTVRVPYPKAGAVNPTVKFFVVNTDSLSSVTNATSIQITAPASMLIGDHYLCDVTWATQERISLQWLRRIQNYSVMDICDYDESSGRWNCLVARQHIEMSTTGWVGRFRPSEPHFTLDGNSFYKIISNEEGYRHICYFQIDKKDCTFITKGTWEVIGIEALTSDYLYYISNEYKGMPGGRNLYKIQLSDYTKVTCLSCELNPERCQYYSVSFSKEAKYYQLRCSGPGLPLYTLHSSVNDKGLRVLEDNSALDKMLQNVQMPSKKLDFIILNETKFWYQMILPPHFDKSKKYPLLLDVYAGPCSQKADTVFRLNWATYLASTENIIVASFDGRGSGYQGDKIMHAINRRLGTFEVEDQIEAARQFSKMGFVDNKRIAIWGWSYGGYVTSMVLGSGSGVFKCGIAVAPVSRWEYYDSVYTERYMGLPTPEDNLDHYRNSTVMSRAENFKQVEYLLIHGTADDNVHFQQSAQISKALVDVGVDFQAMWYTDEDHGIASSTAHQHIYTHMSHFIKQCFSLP
Description: 1. Glu-Pro-PMAC as a DPP4 probe was diluted with an assay buffer to 100 μM. The composition of the buffer is 100 mM HEPES-NaOH (pH 7.4), 1 mM MgCl2, 1 mM DTT, 3 mM TritonX-100.
as §1, with “DPP4” for “CD13”
as §2
4. The microdevice in which the solution was enclosed was incubated at 25° C. for 2 hours, and then the fluorescence intensity of each well was measured with a fluorescence microscope.

ENPP3 [1] = biological target: T3, ENPP3 (Homo sapiens, UniProt O14638); assay: Activity measurement using a purified enzyme of ENPP3 on a plate reader; conditions: Tris-HCl buffer pH 9.3, 1 mM MgCl2, 0.5% CHAPS, 10 μM probe, ENPP3 9.9 μg/mL
T3 sequence (O14638 1-875): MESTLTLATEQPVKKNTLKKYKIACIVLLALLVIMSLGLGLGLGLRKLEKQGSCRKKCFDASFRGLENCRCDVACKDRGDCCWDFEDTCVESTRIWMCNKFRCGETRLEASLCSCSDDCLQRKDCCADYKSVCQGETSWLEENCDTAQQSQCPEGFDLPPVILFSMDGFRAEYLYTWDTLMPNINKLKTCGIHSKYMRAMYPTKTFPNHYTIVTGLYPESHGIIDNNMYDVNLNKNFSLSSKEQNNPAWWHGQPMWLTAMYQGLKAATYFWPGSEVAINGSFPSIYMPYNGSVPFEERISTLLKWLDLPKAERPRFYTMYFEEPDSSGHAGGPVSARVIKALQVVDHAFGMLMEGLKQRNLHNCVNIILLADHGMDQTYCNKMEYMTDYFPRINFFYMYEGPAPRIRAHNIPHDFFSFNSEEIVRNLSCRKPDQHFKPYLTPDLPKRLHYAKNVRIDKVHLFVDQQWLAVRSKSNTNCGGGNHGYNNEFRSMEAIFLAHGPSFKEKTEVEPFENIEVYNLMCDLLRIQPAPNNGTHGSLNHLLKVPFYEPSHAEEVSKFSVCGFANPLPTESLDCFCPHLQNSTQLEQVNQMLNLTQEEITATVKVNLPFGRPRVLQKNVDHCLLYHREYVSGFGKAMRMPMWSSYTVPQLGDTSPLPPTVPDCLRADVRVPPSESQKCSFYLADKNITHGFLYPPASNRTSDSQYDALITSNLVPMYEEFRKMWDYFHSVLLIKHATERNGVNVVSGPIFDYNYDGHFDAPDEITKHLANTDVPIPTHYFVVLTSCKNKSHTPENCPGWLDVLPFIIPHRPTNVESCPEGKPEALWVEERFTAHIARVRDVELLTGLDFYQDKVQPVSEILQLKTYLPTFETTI
Description: The activity measurement of PMUM-dCMP obtained in Synthesis Example 7 was performed using a purified enzyme of ENPP3 on a plate reader.
The assay was performed with a Tris-HCl buffer (pH 9.3) containing 1 mM MgCl2, 0.5% w/w CHAPS, 10 μM PMUM-dCMP, and ENPP3 (recombinant, 9.9 μg/mL).

ENPP3 [2] = biological target: T3, ENPP3; assay: Measurement of human plasma sample using ENPP probe in microdevice; set-up: human plasma samples collected from six patients with pancreatic cancer and six healthy subjects; from tissue; host or cells: human plasma (pancreatic cancer patients and healthy subjects)
Description: 1. PMUM-dCMP as an ENPP probe was diluted with an assay buffer to 200 μM. The composition of the assay buffer is 100 mM Tris-HCl (pH 9.3), 1 mM MgCl2, 0.5% (w/v) CHAPS.
as §1, with “six” for “30”, “250” for “500”, “ENPP” for “CD13”, “100” for “50”, “500” for “1000”
as §2
4. The microdevice in which the solution was enclosed was incubated at 25° C. for 40 minutes, and then the fluorescence intensity of each well was measured with a fluorescence microscope.
Specifically, in this example, an ROC curve for determination based on the enzyme activity of ENPP determined based on the number of wells with 2500 AU or more is created, and when a threshold is subtracted at the time when the number of wells with 2500 AU or more is 23, the sensitivity is 83% and the specificity is 100% (FIG. 16). It is possible to determine pancreatic cancer by such an ROC curve.

[3] = threshold: number of wells with 2500 AU or more is 23

N=C(N)NCCC[C@H](N)C(=O)Nc1ccc2c(CP(=O)(O)O)cc(=O)oc2c1 [Arg-PMAC] was tested, and the “Fluorescence intensity of human plasma samples, patient with pancreatic cancer compared with healthy subject (CD13 probe)” value (CD13) was “a significant difference was observed” and the “AUC of ROC curve for the number of wells in which CD13 is considered to be enclosed” value (CD13) was 0.554.

N[C@@H](CCC(=O)O)C(=O)N1CCC[C@@H]1C(=O)Nc1ccc2c(CP(=O)(O)O)cc(=O)oc2c1 [Glu-Pro-PMAC] was tested, and the “Fluorescence intensity of human plasma samples, patient with pancreatic cancer compared with healthy subject (DPP4 probe)” value (DPP4; microdevice) was “a significant difference was observed” and the “AUC of ROC curve for the ratio of the number of wells belonging to the two peaks (DPP4 considered enclosed)” value (DPP4; plasma of 30 patients with pancreatic cancer vs 30 healthy subjects, 25° C. 2 hours) was 0.724.

With CSCC[C@H](N)C(=O)Nc1ccc2c(CP(=O)(O)O)cc(=O)oc2c1 [Met-PMAC] the “Fluorescence intensity of human plasma samples, patient with pancreatic cancer compared with healthy subject (CD13 probe)” value (CD13) was “a significant difference was observed” and the “AUC of ROC curve for the number of wells in which CD13 is considered to be enclosed” value (CD13) was 0.619.

With NC1C=CN(C2CC(O)C(COP(=O)(O)Oc3ccc4c(CP(=O)(O)O)cc(=O)oc4c3)O2)C(=O)N1 (centres unmarked) [PMUM-dCMP] the “Fluorescence intensity (FI) on adding ENPP3 compared with adding no ENPP3” value (ENPP3 [1]) was “remarkable increase in fluorescence intensity”, the “Fluorescence intensity of human plasma samples, patient with pancreatic cancer compared with healthy subject (ENPP probe)” value (ENPP3 [2]; microdevice, 100 μM probe, 500 fold dilution plasma) was “a significant difference was observed” and the “Number of wells with fluorescence intensity equal to or higher than 2500 AU, patients with pancreatic cancer compared with healthy subjects” value (ENPP3 [2]; plasma of six patients and six healthy subjects, 100 μM probe, 500 fold dilution plasma, 25° C. 40 minutes) was “significant increase in the number of wells”. For the same compound, the “Sensitivity of ROC determination of pancreatic cancer” value (ENPP3 [2]; [3]) was 83% and the “Specificity of ROC determination of pancreatic cancer” value (ENPP3 [2]; [3]) was 100%.
